Results on 7 compounds are retold here after publication PMC8219897 (Water Research X, 2021).

In one data set the test system is ERα. Conditions: read-out: IC50, competitive binding to ERα; ref Nakagawa and Suzuki 2001; cited from earlier work.
A further data set concerns aquatic life. The note with it: proposed by ECHA; ref ECHA; cited from earlier work.
The conditions of data set [1]: aqueous solution, pseudo-first-order kinetic; ref Kovacic et al. 2019; cited from earlier work.
The target in data set [2] is T1, human estrogen receptor alpha (ERα) (Homo sapiens, UniProt P03372).
T1 sequence (P03372 1-595): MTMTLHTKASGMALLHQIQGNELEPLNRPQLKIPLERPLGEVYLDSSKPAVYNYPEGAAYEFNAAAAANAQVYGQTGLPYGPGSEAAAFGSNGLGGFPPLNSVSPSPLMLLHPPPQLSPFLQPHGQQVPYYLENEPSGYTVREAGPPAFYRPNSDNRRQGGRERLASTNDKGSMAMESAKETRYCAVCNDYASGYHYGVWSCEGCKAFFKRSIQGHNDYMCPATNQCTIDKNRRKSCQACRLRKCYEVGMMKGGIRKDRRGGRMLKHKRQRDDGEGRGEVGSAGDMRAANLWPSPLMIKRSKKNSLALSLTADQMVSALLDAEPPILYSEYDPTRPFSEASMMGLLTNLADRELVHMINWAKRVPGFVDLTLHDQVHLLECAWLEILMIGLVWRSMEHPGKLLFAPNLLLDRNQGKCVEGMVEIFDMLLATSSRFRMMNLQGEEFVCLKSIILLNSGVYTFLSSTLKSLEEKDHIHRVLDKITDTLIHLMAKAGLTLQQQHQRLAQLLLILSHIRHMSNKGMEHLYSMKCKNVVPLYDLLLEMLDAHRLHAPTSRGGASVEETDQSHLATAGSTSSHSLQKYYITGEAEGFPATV
Briefly: Yeast estrogen screen. It counts as cell-based. The note with it: for Estrogenic effects in single testing (in words): single compounds, Figure SI 5B.

In the next data set the test system is MCF-7 cells. The note with it: read-out: EC50, estrogen-like effects, ref Kitamura et al. 2005; cited from earlier work.
In another data set the test system is NIH3T3 cells. The note with it: read-out: EC50, anti-androgenic effects, ref Kitamura et al. 2005; cited from earlier work.
For data set [3], the system named is estrogen-related receptor. The note with it: recombined yeast strains; ref Li et al. (2010); cited from earlier work.
The test system of another data set is Aliivibrio fischeri. It counts as cell-based. Conditions: present study.
The test system of a further data set is zebrafish embryos. Conditions: ref McCormick et al. (2011); cited from earlier work.
The conditions of data set [4]: muscle, liver and gill tissue of wild fish, Panlong River; ref Wang et al. 2016; cited from earlier work.
The next data set has as its system P450 aromatase. The note with it: JEG-3 cells, at 20 µM; ref Perez-Albaladejo et al. (2019); cited from earlier work.
Data set [5] relates to human placental JEG-3 cells. The note with it: read-out: EC50, cytotoxic effects, ref Perez-Albaladejo et al. (2019); cited from earlier work.
[6] abbreviates: leachates of UV irradiated coating B.

Converted amounts (≈) assume the structure as drawn. Read-outs that look alike come from different tables or passages of the source.

As to `CC(C)(c1ccc(O)cc1)c1ccc(O)cc1` [BPA, bisphenol A], in the data set with ERα, the IC50 (in general, the point on the concentration scale where inhibition reaches its midpoint) is 10 µM. The “Predicted no effect concentration (PNEC), freshwater” value in the data set with aquatic life was 18 µg/L. Besides, in the data set with aquatic life, the “Predicted no effect concentration (PNEC), freshwater sediments” value is 1.2 µg/g dry weight. The “Half-life time of degradation under UV irradiation” value in [1] is reported as “about 6 h”. For the same compound, the “Mean contribution to estrogenicity of the quantified substances (toxic units)” value (“Mean contribution to estrogenicity” for short) in data set [2] (leachates of UV irradiated coating A) is on record as 3%; in [2] (setting [6]), 16%.

With `CC(C)(c1ccc(O)cc1)c1ccc(O)c(O)c1` [BPA-I10, 5-hydroxybisphenol A], the EC50 (as a rule, the concentration needed to bring the measured effect to its halfway point) is 1.8 µM with MCF-7 cells; 14 µM with NIH3T3 cells; 31 µM in [2] (read-out: EC50, yeast estrogen screen, single compound, present results). Moreover, the IC50 in the data set with ERα was 50 µM. Also, in data set [2] (single compound, present results), the “EC50, yeast estrogen screen” value is 7.5 µg/mL (≈ 30.7 µM). Also, the “Estrogenic effects in single testing (in words)” value (“Estrogenic effects” for short) in [2] is on record as “showed estrogenic potential”.

Regarding `CC(C)(C)c1ccccc1O` [2-tert-butylphenol], in data set [3], the “Effect on estrogen-related receptor gamma” value is “inverse agonistic effects”.

With `CC(C)(c1ccc(OCC(O)CO)cc1)c1ccc(OCC(O)CO)cc1` (stereo not drawn) [Bis-HPPP, bisphenol A bis(2,3-dihydroxypropyl) ether], in [2], the “Estrogenic effects” value was “not estrogenic”.

`COc1ccc(C(C)(C)c2ccc(O)cc2)cc1` [BPA-I11, 4-[1-(4-methoxyphenyl)-1-methylethyl]phenol]: the “Potency compared to BPA in the luminescent bacteria assay” value in the data set with Aliivibrio fischeri is “more potent”. In data set [2], this compound showed a 50% effective concentration (EC50) of 0.666 µM. For the same compound, the “Mean contribution to estrogenicity” value in data set [2] (setting [6]) came out at 2%. For the same compound, in the data set on zebrafish embryos, the “Half maximal lethal concentration” value is given as “up to 0.66 mg/l”.

For the compound `Oc1ccccc1-c1ccccc1` [2PP, 2-phenylphenol], the “Estrogenic effects” value in data set [2] is on record as “showed estrogenic potential”.

For the compound `CC(C)(c1ccccc1)c1ccc(O)cc1` [4CP, 4-cumylphenol], the “Bioconcentration factor (BCF)” value in data set [4] is “up to 10”. Besides, the “Predicted no effect concentration (PNEC), freshwater” value in the data set with aquatic life is 14.2 µg/L. Also, the “Predicted no effect concentration (PNEC), freshwater sediments” value with aquatic life was 3.58 µg/g dry weight. Also, the “Increase of P450 aromatase activity” value with P450 aromatase is 1.3 fold. For the same compound, the “Potency compared to BPA in the luminescent bacteria assay” value in the data set on Aliivibrio fischeri is on record as “more potent”. Moreover, the 50% effective concentration (EC50) in data set [5] is 65 µM; in [2] it was 0.212 µM. Also, the “Mean contribution to estrogenicity” value in data set [2] (setting [6]) is listed as 1%.
